Reference: ChEMBL document CHEMBL5316287 (J Med Chem, 2023)

Experiments:
[1] = target: T1, Histone acetyltransferase p300 (Homo sapiens, UniProt Q09472); test: Inhibition of EP300 in human LK2 cells assessed as reduction in intracellular H3K27 acetylation incubated for 3 hrs by chemiluminescence based ELISA; format: cell-based
[2] = 1-Octanol/PBS partition coefficient, logD of the compound at pH 7.4 incubated for 30 mins by shake flask technique based HPLC-LC/MS analysis; format: physicochemical
[3] = Metabolic stability in human liver microsomes assessed as intrinsic clearance at 1 uM; format: ADME, Microsome
[4] = Metabolic stability in mouse liver microsomes assessed as intrinsic clearance at 1 uM; format: ADME, Microsome
[5] = AUC in BALB/cAnNCrlCrlj mouse at 10 mg/kg,po; format: ADME, organism-based; design: dose 10 mg/kg, route po; conditions: in vivo
[6] = Unbound AUC in BALB/cAnNCrlCrlj mouse at 10 mg/kg,po; format: ADME, organism-based; conditions: in vivo
[7] = Cmax in BALB/cAnNCrlCrlj mouse at 10 mg/kg,po; format: ADME, organism-based; design: dose 10 mg/kg, route po; conditions: in vivo
[8] = Half life in BALB/cAnNCrlCrlj mouse at 10 mg/kg,po; format: ADME, organism-based; conditions: in vivo
[9] = Oral bioavailability in BALB/cAnNCrlCrlj mouse at 10 mg/kg; format: ADME, organism-based; conditions: in vivo; for F: po, 10 mg/kg
[10] = Volume of distribution at steady state in BALB/cAnNCrlCrlj mouse at 1 mg/kg,iv administered as DMS0/10% SBE-7-betaCD (1:9 ratio) solution; format: ADME, organism-based; conditions: in vivo, read-out: Vdss
[11] = Unbound clearance in BALB/cAnNCrlCrlj mouse at 1 mg/kg,iv administered as DMS0/10% SBE-7-betaCD (1:9 ratio) solution; format: ADME, organism-based; conditions: in vivo
[12] = target: T1, Histone acetyltransferase p300; test: Inhibition of recombinant human full length EP300 assessed as inhibition of H4 peptide acetylation using biotinylated H4 peptide as substrate in presence of Acetyl-CoA incubated for 60 mins by TR-FRET assay
[13] = Volume of distribution at steady state in BALB/cAnNCrlCrlj mouse at 1 mg/kg,iv administered as DMA/Tween80/saline (1:1:8 ratio) solution; format: ADME, organism-based; conditions: in vivo, read-out: Vdss
[14] = Clearance in BALB/cAnNCrlCrlj mouse at 1 mg/kg,iv administered as DMA/Tween80/saline (1:1:8 ratio) solution; format: ADME, organism-based; conditions: in vivo
[15] = Unbound clearance in BALB/cAnNCrlCrlj mouse at 1 mg/kg,iv administered as DMA/Tween80/saline (1:1:8 ratio) solution; format: ADME, organism-based; conditions: in vivo
[16] = Volume of distribution at steady state in BALB/cAnNCrlCrlj mouse at 2 mg/kg,iv administered as DMA/Tween80/saline (1:1:8 ratio) solution; format: ADME, organism-based; conditions: in vivo, read-out: Vdss
[17] = Unbound clearance in BALB/cAnNCrlCrlj mouse at 2 mg/kg,iv administered as DMA/Tween80/saline (1:1:8 ratio) solution; format: ADME, organism-based; conditions: in vivo
[18] = BALB/cAnNCrlCrlj, read-out: AUC

T1 sequence (Q09472 whole entry): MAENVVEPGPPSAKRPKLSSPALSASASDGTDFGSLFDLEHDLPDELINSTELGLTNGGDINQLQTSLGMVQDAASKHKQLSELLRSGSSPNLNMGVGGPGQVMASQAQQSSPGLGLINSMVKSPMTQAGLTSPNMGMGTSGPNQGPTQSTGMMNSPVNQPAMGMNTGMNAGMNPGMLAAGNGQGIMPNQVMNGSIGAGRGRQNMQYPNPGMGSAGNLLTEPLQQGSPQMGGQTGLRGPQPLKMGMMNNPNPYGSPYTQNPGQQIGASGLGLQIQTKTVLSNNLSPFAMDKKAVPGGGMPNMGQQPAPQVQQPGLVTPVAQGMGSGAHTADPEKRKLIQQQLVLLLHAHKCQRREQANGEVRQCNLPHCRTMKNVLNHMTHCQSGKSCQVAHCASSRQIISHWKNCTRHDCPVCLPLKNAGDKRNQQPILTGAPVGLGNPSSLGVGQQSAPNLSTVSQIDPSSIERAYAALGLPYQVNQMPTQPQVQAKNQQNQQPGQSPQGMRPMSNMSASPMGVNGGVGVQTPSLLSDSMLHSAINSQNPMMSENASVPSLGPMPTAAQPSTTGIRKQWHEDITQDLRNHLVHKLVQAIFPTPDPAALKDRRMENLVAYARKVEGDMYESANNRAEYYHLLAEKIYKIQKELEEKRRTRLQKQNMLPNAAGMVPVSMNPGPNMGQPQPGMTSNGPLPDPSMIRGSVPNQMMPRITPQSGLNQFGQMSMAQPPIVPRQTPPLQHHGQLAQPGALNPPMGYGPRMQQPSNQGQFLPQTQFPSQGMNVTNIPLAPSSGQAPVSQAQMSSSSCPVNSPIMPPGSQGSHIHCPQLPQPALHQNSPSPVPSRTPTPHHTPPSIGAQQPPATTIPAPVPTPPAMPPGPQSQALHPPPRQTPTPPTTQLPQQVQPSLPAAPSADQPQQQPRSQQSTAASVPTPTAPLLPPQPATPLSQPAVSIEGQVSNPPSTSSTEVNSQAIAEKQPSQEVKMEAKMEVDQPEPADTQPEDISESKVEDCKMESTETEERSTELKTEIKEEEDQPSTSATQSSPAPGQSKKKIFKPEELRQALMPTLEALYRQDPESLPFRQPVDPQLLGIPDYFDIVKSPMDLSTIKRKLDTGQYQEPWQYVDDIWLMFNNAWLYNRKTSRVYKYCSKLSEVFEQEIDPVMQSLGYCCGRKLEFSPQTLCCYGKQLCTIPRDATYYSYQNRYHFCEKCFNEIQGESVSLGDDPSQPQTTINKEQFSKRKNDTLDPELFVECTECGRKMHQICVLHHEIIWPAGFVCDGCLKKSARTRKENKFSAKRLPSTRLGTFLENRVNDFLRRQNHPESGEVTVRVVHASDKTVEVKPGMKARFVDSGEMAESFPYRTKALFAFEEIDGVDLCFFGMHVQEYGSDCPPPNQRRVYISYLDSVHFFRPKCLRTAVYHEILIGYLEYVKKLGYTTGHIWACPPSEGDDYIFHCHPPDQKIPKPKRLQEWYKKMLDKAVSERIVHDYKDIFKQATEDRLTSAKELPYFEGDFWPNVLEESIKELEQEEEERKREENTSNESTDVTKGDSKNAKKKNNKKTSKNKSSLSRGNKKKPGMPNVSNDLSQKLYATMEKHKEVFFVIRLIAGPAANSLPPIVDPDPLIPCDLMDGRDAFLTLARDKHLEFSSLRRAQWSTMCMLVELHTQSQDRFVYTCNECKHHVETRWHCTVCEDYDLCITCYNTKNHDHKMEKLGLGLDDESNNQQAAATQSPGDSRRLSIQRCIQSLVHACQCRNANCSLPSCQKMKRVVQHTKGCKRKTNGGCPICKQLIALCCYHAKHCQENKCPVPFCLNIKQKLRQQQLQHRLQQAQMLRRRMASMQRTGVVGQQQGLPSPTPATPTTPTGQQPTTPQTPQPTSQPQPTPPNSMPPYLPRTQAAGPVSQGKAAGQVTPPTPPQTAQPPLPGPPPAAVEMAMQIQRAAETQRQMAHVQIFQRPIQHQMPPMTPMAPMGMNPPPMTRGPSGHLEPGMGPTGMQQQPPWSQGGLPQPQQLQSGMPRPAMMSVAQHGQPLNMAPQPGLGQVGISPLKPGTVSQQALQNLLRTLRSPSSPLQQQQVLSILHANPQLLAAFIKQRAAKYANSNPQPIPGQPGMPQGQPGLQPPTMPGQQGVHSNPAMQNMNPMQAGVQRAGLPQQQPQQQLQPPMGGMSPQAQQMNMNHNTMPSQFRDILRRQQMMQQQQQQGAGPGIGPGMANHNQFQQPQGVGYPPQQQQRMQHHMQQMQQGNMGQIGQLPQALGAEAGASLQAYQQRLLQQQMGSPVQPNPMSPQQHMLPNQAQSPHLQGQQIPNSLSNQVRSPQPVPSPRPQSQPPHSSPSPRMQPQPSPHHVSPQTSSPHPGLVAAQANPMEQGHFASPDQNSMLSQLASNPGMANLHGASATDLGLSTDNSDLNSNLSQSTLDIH

Compound	IC50 [1] [nM]	logD at 0.5 h [2]	intrinsic clearance [3] [µL/min/mg]	intrinsic clearance (CLint) [4] [µL/min/mg]	Cmax [7] [nM]	half-life [8] [h]	also measured
COc1c(F)cc(C2(C(=O)N3C[C@H](F)C[C@@H]3C(=O)Nc3ccc4[nH]ncc4n3)CCC(F)(F)CC2)cc1F	142	3.2	60	–	–	–	–
COc1ccc(C2(C(=O)N3C[C@H](F)C[C@@H]3C(=O)Nc3ccc4[nH]ncc4n3)CCCCC2)cc1	–	3.1	310	770	10800	1.4	AUC [5]: 15 µM·h; fAUC [6]: 0.6 µM·h; F [9]: 2.2%; Vd [10]: 0.29 L/kg; CL free [11]: 133 mL/min/kg
CS(=O)(=O)c1ccc(C2(C(=O)N3C[C@H](F)C[C@@H]3C(=O)Nc3ccc4[nH]ncc4n3)CCC(F)(F)CC2)cc1	95	1.6	–	–	90	1.5	IC50 [12]: 55 nM; AUC [5, 18]: 0.23 µM·h
COc1ccc(C2(C(=O)N3C[C@H](F)C[C@@H]3C(=O)Nc3ccc4[nH]ncc4n3)CCC(F)(F)CC2)cc1F	57	3	40	–	–	–	IC50 [12]: 36 nM
COc1ccc(C2(C(=O)N3CCC[C@@H]3C(=O)Nc3ccc4[nH]ccc4c3)CCCC2)cc1	709	–	–	–	–	–	–
COc1ccc(C2(C(=O)N3CCC[C@@H]3C(=O)Nc3ccc4[nH]ncc4n3)CCCC2)cc1	52	–	–	–	–	–	IC50 [12]: 24 nM
O=C(Nc1ccc2[nH]ncc2n1)[C@H]1C[C@@H](F)CN1C(=O)C1(c2ccc(C(=O)C(F)(F)F)cc2)CCCCC1	21	3.4	150	380	–	–	–
COc1ccc(C2(C(=O)N3CCC[C@@H]3C(=O)Nc3ccc4[nH]ncc4c3)CCCC2)cc1	916	–	–	–	–	–	–
COc1ccc(C2(C(=O)N3C[C@H](F)C[C@@H]3C(=O)Nc3ccc4[nH]ncc4n3)CCCCC2)cc1F	16	3.1	230	400	12700	1.2	AUC [5, 18]: 16.8 µM·h; fAUC [6]: 1.39 µM·h; bioavailability ([9]; BALB/cAnNCrlCrlj): 62%; Vd [13]: 0.15 L/kg; clearance [14]: 6.3 mL/min/kg; CL free [15]: 76 mL/min/kg
COc1ccc(C2(C(=O)N3CS(=O)(=O)C[C@@H]3C(=O)Nc3ccc4[nH]ncc4n3)CCCCC2)cc1	27	–	–	–	–	–	–
COc1ccc(C(C)(C)C(=O)N2C[C@H](F)C[C@@H]2C(=O)Nc2ccc3[nH]ncc3n2)cc1	77	1.9	10	380	–	–	–
COc1ccc(C2(C(=O)N3C[C@H](F)C[C@@H]3C(=O)Nc3ccc4[nH]ncc4n3)CC(C)(C)C2)cc1	53	3.1	100	240	–	–	–
O=C(Nc1ccc2[nH]ncc2n1)[C@H]1C[C@@H](F)CN1C(=O)C1(c2ccc(O)cc2)CCCCC1	13	2.7	140	–	340	2.8	AUC [5, 18]: 0.87 µM·h

The next lines start with results.

IC50 [1] [nM]	logD at 0.5 h [2]	intrinsic clearance [3] [µL/min/mg]	intrinsic clearance (CLint) [4] [µL/min/mg]	Cmax [7] [nM]	half-life [8] [h]	Compound	also measured
–	–	–	–	320	0.6	COc1ccc(C2(C(=O)N3CCC[C@@H]3C(=O)Nc3cccc4[nH]ncc34)CCCC2)cc1	AUC [5, 18]: 0.42 µM·h; fAUC [6]: 0.029 µM·h
2790	–	–	–	–	–	COc1ccc(C2(C(=O)N3CCC[C@@H]3C(=O)Nc3ccc4cn[nH]c4c3)CCCC2)cc1	IC50 [12]: 500 nM
101	1.6	10	50	–	–	COc1ccc(C2(C(=O)N3C[C@H](F)C[C@@H]3C(=O)Nc3ccc4[nH]ncc4n3)CCOCC2)cc1	–
15	2.3	110	160	–	–	COc1ccc(C2(C(=O)N3C[C@H](F)C[C@@H]3C(=O)Nc3ccc4[nH]ncc4n3)CCCCC2)cn1	–
106	–	–	–	–	–	COc1ccc(C2(C(=O)N3C[C@H](O)C[C@@H]3C(=O)Nc3ccc4[nH]ncc4n3)CCCCC2)cc1	IC50 [12]: 50 nM
20	2.1	40	120	1610	2.1	COc1ccc(C2(C(=O)N3C[C@H](F)C[C@@H]3C(=O)Nc3ccc4[nH]ncc4n3)CC(F)(F)C2)cc1	AUC [5, 18]: 2.29 µM·h; fAUC [6]: 0.268 µM·h
–	–	–	–	80	2	COc1ccc(C2(C(=O)N3CCOCC(Cc4cccc5[nH]ncc45)C3)CCCC2)cc1 (stereo not given)	AUC [5]: 0.1 µM·h; fAUC [6]: 0.006 µM·h; Vd [16]: 1.76 L/kg; CL free [17]: 1740 mL/min/kg; F [9]: 31%
304	–	–	–	–	–	COc1ccc(C2(C(=O)N3CCC[C@@H]3C(=O)Nc3cccc4[nH]ccc34)CCCC2)cc1	–
